Active and inactive are the calls of the source. No cut-off for these calls is given here.
How the values were obtained:
[1] = target: Cyclin-dependent kinase-like 2 (Homo sapiens) (UniProt Q92772); assay: Inhibition of CDKL2 (unknown origin) at 10 uM by Ambit Kinomescan binding assay relative to control
[2] = target: Cyclin-dependent kinase 20 (Homo sapiens) (UniProt Q8IZL9); assay: Inhibition of CCRK Lys2 labeling site in human A-375 cells at 0.5 uM by KiNativ Profiling analysis relative to control; assay type: cell-based
Sequence of Cyclin-dependent kinase 20 (Homo sapiens) (Q8IZL9 whole entry): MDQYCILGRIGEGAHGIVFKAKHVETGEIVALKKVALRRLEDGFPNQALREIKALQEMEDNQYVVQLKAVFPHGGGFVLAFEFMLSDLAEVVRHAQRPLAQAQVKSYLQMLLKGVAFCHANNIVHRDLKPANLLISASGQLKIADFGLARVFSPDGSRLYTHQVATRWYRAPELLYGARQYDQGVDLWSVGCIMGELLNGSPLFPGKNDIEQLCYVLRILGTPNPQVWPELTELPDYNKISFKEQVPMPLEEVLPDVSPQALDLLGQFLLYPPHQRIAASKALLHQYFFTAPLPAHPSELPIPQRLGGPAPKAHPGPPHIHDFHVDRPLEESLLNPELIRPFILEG

[3] = target: Microtubule-associated serine/threonine-protein kinase 3 (Homo sapiens) (UniProt O60307); assay: Inhibition of MAST3 Lys2 labeling site in human A-375 cells at 0.05 uM by KiNativ Profiling analysis relative to control; assay type: cell-based
Sequence of Microtubule-associated serine/threonine-protein kinase 3 (Homo sapiens) (O60307 whole entry): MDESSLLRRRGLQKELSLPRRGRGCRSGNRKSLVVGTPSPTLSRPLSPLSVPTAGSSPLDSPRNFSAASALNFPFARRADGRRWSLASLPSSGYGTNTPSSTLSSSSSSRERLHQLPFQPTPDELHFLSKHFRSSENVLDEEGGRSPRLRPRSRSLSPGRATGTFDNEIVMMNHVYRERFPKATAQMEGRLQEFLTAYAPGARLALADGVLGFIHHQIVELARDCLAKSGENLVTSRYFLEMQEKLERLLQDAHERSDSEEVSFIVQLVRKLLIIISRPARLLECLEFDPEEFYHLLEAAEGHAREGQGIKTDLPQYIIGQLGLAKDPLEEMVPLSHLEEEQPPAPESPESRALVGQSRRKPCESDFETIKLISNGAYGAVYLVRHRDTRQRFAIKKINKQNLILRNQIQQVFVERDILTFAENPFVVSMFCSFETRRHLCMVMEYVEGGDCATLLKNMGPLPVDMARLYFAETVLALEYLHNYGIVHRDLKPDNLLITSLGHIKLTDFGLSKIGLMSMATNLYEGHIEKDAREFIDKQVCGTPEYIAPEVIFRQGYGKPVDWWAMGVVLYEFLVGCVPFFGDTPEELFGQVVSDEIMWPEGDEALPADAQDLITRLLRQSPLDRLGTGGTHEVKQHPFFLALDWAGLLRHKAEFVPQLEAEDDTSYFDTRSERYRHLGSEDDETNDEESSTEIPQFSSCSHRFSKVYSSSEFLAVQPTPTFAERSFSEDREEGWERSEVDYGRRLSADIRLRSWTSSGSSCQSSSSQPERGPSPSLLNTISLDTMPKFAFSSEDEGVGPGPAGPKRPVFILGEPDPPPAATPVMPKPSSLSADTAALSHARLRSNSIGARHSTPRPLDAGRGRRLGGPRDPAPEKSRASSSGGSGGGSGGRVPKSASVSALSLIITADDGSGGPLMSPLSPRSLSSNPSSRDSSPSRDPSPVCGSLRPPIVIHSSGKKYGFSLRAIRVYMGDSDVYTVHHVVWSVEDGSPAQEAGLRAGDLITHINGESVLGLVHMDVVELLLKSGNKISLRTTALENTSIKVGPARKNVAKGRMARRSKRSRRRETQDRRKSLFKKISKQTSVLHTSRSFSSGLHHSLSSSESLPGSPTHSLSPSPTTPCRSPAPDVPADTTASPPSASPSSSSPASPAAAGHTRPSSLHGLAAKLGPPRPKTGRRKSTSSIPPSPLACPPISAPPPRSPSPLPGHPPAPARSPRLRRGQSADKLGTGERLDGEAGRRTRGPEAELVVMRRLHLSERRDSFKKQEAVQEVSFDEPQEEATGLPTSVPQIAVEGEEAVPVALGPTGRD

[4] = target: Serine/threonine-protein kinase MARK2 (Homo sapiens) (UniProt Q7KZI7); assay: Inhibition of MARK2 K1 labeling site harbouring HILTGKEVAVKIIDKTQLNSSSLQK in human Huh-7 cells at 10 uM by KiNativ Profiling analysis relative to control; assay type: cell-based
Sequence of Serine/threonine-protein kinase MARK2 (Homo sapiens) (Q7KZI7 whole entry): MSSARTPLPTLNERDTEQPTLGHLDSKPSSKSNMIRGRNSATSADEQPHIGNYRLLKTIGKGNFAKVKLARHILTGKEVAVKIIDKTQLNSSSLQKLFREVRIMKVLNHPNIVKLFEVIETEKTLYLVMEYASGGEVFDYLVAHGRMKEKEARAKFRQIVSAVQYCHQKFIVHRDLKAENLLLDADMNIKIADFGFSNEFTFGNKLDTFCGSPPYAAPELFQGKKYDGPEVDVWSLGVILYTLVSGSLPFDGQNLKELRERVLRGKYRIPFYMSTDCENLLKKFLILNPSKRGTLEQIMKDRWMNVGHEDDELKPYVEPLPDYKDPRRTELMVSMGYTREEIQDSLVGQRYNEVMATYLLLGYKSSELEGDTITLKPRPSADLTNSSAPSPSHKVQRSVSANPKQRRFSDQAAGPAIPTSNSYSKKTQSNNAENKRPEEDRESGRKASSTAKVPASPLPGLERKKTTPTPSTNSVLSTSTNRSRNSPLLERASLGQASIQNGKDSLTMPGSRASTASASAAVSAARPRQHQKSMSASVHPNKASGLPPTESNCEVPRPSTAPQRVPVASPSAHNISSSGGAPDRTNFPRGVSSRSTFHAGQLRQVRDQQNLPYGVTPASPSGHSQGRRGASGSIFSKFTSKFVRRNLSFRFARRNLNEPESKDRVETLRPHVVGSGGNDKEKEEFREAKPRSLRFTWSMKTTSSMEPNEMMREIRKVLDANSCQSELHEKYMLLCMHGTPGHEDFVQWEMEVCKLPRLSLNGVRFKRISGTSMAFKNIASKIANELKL

[5] = Inhibition of NEK6/7 K2 labeling site harbouring DIKPANVFITATGVVK in human Huh-7 cells at 10 uM by KiNativ Profiling analysis relative to control; conditions: condition cancer
[6] = target: DNA-dependent protein kinase catalytic subunit (Homo sapiens) (UniProt P78527); assay: Inhibition of PRKDC ATP labeling site harbouring KGGSWIQEINVAEK in human Huh-7 cells at 10 uM by KiNativ Profiling analysis relative to control; assay type: cell-based
[7] = target: Serine/threonine-protein kinase Nek6 (Homo sapiens) (UniProt Q9HC98); assay: Inhibition of NEK6 ACT labeling site in human Huh-7 cells at 1 uM by KiNativ Profiling analysis relative to control; assay type: cell-based
[8] = target: T1, Eukaryotic translation initiation factor 2-alpha kinase 3 (Homo sapiens) (UniProt Q9NZJ5); assay: Inhibition of PEK K2 labeling site in human Huh-7 cells at 1 uM by KiNativ Profiling analysis relative to control; assay type: cell-based
T1 sequence (whole entry): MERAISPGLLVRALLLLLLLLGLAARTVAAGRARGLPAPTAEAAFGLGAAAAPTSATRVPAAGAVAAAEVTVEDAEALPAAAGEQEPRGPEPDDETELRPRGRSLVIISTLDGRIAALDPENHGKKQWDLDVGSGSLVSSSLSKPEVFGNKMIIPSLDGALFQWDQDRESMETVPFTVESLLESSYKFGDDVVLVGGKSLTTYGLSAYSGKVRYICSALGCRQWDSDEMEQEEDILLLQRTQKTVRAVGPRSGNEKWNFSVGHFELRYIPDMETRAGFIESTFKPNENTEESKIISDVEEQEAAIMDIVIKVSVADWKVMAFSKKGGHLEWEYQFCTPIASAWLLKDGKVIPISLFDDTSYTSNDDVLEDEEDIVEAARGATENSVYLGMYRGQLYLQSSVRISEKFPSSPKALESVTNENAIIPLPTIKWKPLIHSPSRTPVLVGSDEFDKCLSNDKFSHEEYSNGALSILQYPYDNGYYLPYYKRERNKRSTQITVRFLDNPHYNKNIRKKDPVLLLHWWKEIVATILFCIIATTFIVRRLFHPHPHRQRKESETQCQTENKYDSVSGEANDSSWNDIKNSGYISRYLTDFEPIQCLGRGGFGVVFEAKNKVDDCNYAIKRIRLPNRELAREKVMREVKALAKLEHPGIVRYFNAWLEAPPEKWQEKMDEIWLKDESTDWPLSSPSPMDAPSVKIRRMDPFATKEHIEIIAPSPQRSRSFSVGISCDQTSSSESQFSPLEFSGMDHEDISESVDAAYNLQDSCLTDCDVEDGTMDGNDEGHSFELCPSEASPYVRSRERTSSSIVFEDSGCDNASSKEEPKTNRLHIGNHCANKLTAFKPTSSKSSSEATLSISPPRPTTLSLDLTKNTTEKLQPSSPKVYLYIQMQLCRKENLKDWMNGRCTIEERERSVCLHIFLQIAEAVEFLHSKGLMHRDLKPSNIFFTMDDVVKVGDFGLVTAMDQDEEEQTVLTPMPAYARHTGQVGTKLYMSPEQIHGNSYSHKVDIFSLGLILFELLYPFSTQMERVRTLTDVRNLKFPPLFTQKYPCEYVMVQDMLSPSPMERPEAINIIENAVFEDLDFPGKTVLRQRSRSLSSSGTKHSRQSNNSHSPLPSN

[9] = target: Non-receptor tyrosine-protein kinase TYK2 (Homo sapiens) (UniProt P29597); assay: Inhibition of TYK2 JH1 catalytic domain (unknown origin) at 10 uM by Ambit Kinomescan binding assay relative to control; values are per cent of control
[10] = target: Mitogen-activated protein kinase kinase kinase 13 (Homo sapiens) (UniProt O43283); assay: Inhibition of LZK (unknown origin) at 1 uM by Ambit Kinomescan binding assay relative to control
[11] = target: Serine/threonine-protein kinase RIO2 (Homo sapiens) (UniProt Q9BVS4); assay: Inhibition of RIOK2 (unknown origin) at 1 uM by Ambit Kinomescan binding assay relative to control
[12] = target: Serine/threonine-protein kinase SIK1 (Homo sapiens) (UniProt P57059); assay: Inhibition of SIK (unknown origin) at 1 uM by Ambit Kinomescan binding assay relative to control
[13] = target: Serine/threonine-protein kinase ULK2 (Homo sapiens) (UniProt Q8IYT8); assay: Inhibition of ULK2 (unknown origin) at 1 uM by Ambit Kinomescan binding assay relative to control
Sequence of Serine/threonine-protein kinase ULK2 (Homo sapiens) (Q8IYT8 whole entry): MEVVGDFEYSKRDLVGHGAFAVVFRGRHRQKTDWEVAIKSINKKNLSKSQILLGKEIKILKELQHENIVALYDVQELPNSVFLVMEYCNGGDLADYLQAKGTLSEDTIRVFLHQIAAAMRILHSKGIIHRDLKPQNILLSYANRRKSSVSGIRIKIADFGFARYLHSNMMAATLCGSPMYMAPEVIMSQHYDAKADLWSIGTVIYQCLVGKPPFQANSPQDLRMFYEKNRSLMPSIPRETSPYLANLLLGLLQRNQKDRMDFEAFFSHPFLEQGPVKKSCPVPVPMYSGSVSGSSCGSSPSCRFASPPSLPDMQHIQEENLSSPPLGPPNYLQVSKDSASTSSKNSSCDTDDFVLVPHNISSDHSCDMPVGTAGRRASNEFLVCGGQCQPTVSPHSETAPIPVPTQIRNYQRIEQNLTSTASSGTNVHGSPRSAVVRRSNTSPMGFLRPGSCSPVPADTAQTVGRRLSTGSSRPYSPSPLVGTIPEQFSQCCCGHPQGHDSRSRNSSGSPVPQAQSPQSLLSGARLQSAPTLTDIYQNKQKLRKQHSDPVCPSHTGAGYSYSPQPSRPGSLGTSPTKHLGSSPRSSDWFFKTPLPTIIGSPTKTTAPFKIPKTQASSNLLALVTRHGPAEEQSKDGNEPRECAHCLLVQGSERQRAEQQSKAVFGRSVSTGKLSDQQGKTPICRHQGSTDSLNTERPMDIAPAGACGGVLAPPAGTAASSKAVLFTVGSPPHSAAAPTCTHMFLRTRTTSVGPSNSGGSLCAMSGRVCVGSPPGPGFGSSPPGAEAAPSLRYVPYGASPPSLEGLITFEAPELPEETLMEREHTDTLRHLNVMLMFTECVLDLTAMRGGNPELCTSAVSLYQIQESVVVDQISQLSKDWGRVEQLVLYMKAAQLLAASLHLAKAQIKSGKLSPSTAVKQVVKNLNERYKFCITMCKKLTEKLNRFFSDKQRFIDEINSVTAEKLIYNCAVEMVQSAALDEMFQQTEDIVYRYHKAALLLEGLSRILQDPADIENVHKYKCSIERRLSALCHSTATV

[14] = target: Cytoplasmic tyrosine-protein kinase BMX (Homo sapiens) (UniProt P51813); assay: Inhibition of BMX (unknown origin) at 1 uM by Ambit Kinomescan binding assay relative to control; values are per cent of control
[15] = target: Mitogen-activated protein kinase kinase kinase 12 (Homo sapiens) (UniProt Q12852); assay: Inhibition of DLK Lys2 labeling site harbouring in human A-375 cells at 0.05 uM by KiNativ Profiling analysis relative to control
Sequence of Mitogen-activated protein kinase kinase kinase 12 (Homo sapiens) (Q12852 whole entry, looked up): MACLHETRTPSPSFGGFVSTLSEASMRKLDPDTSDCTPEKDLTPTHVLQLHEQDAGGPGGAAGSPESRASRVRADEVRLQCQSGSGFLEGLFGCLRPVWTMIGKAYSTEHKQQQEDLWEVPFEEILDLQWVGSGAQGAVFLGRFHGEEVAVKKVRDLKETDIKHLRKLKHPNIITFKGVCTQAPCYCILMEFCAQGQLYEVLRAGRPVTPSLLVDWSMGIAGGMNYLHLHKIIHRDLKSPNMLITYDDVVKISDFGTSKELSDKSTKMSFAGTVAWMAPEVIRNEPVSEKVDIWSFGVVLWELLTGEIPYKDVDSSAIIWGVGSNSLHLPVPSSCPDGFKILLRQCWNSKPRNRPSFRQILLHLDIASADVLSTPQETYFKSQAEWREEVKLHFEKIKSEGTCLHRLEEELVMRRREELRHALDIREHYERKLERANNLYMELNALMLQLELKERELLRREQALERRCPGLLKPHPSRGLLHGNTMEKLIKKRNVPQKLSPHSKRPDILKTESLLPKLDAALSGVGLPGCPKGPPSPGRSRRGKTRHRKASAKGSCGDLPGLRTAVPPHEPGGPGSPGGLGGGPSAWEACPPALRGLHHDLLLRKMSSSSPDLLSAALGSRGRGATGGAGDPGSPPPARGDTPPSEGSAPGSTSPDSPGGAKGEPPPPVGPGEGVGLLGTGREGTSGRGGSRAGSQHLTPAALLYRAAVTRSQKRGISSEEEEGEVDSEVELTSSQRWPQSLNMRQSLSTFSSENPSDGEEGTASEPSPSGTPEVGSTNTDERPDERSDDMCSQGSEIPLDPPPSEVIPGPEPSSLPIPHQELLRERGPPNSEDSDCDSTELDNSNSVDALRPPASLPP

[16] = tested on: Tyrosine-protein kinase ABL1 (Homo sapiens), P00519 [Q252H]; assay: Inhibition of phosphorylated ABL1 Q252H mutant (unknown origin) at 1 uM by Ambit Kinomescan binding assay relative to control; values are per cent of control

Sequence of Cyclin-dependent kinase-like 2 (Homo sapiens) (Q92772 whole entry): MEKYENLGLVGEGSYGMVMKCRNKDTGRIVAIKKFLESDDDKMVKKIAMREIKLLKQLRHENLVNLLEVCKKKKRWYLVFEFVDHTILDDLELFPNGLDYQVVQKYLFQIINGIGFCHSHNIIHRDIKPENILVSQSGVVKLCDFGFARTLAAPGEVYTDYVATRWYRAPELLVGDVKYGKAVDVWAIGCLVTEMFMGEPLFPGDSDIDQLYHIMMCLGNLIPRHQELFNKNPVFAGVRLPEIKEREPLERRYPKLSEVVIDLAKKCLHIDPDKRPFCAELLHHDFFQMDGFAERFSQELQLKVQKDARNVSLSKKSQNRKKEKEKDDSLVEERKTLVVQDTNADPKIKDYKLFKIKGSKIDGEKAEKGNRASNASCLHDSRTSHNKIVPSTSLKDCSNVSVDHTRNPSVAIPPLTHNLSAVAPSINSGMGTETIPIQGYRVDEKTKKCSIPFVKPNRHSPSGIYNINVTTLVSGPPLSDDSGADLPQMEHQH

| Compound | inhibition [1] | inhibition [2] | inhibition [3] | inhibition [4] | inhibition at 10 µM [5] | inhibition [6] | inhibition [7] | inhibition [8] | residual activity [9] | inhibition [10] | inhibition [11] | inhibition [12] | inhibition [13] | residual activity [14] | inhibition [15] | percent of control [16] |
| --- | --- | --- | --- | --- | --- | --- | --- | --- | --- | --- | --- | --- | --- | --- | --- | --- |
| CCN1CCN(Cc2ccc(NC(=O)c3ccc(C)c(Oc4ccnc5[nH]ccc45)c3)cc2C(F)(F)F)CC1 | 0.9% | -2.3% | -3.3% | inactive | 2.8% | 0.2% | 15.5% | inactive | 0% |  |  |  |  |  |  |  |
| CCN1CCN(Cc2ccc(NC(=O)c3ccc(C)c(/C=C/c4cnc5[nH]ccc5c4OC)c3)cc2C(F)(F)F)CC1 |  |  |  |  |  |  |  |  |  | 82% | 61% | 2.1% | 81% | 1.6% | 9% | 1.2% |

From ChEMBL document CHEMBL5696442, “Discovery of type II inhibitors of TGFβ-activated kinase 1 (TAK1) and mitogen-activated protein kinase kinase kinase kinase 2 (MAP4K2)” (J Med Chem, 2015)
